Results from patent US5079257A, “Indoloquinone compounds” (priority 1986, dated 1992).
Where two headings read alike, the source gives them in different places.

Columns and labels:
[1] = system: A 204 cells; rhabdomyosarcoma; assay: In vitro panel of human tumour lines (TNO): A 204; type: cell-based; details: about 72 hours; further: key: -: no inhibition of cell growth; +: total cell-kill
How it was run: (§1)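 Cells (5×10^4/ml, Dulbecco's medium + 10% FCS) grafted 48 h, then continuously exposed to compound (Hanks'/ethanol, final ethanol <1%) for about 72 h at 37°C, 10% CO2. Crystal violet fixation/staining; inhibiting concentration estimated qualitatively over increasing doses.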

[2] = system: T 24 cells; bladder carcinoma; assay: In vitro panel of human tumour lines (TNO): T 24; type: cell-based; details: about 72 hours; further: key: -: no inhibition of cell growth; +: total cell-kill
How it was run: as §1

[3] = system: L1210; assay: In vivo L1210 experiments (TNO Rijswijk); design: species or system mice
Experimental: The in vivo L1210 experiments were carried out in male Balb/c X DBA.2 Fl hybrid mice at TNO, Rijswijk.
In these experiments also, the drugs were administered IP as suspensions in carboxymethyl cellulose […] as a single dose at the first day.

[4] = system: L1210 cells; assay: Lowest active dose (L1210; bioliquid assay); type: cell-based; details: Mus musculus
Source text: The indoloquinones II (formula II) have been tested in respect of their cytotoxic activity against L1210 cells and R-1 cells (Rhabdomyosarcoma Cells) in a bioliquid assay at the department of oncology of the Free University of Amsterdam (Table I). In addition to this seven compounds (E.O. 1, E.O. 2, E.O. 4, E.O. 7, E.O. 9, E.O. 16 and E.O. 17) have been tested on L1210 activity in a clonogenic assay at TNO, Rijswijk. Further, the lowest active doses of the compounds E.O. 1, E.O. 2, E.O. 4 and E.O. 9 have been determined at TNO Rijswijk, according to the method described by Lamberts et al. [Oncology, 40, 301 (1983)]. (Table II). Eight indoloquinones (E.O. 1, E.O. 2, E.O. 4, E.O. 4A, E.O. 8, E.O. 9, E.O. 33 and E.O. 35) have been tested in a panel of five human tumour lines (TNO Rijswijk; Table III). From the latter group three indoloquinones (E.O. 1, E.O. 4 and E.O. 9) have been selected for a cytotoxicity study, involving five slowly growing human tumour lines (University of Freiburg; Table IV).
The lowest active doses for the compounds E.O. 1, E.O. 2, E.O. 4 and E.O. 9 were determined according to the method described by Lamberts et al. [Oncology, 40, 301 (1983)]. In this method, L1210 cells were grown in a series of wells in a culture medium and in the presence of the compound to be tested, as in the determination of L1210 activity in a bioliquid assay reported above, but the compound was present in respective wells in a different concentration, the concentrations extending over an appropriate range. After a suitable incubation period, the lowest active dose for the compound in question was determined by comparing the diameter of each of the precipitation spots with that of a control containing only the culture and the cell suspension, a smaller diameter indicating growth inhibition (Table II).

[5] = system: IgR37 cells melanoma; assay: In vitro panel of human tumour lines (TNO): IgR-37; type: cell-based; details: about 72 hours; further: key: -: no inhibition of cell growth; +: total cell-kill
How it was run: as §1

[6] = system: WiDr cells; colon tumour; assay: In vitro panel of human tumour lines (TNO): WiDr; type: cell-based; details: about 72 hours; further: key: -: no inhibition of cell growth; +: total cell-kill
How it was run: (§2)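 Cells in Dulbecco's medium with 10% foetal calf serum were seeded 48 h, then exposed continuously to increasing compound concentrations (final ethanol <1%) for about 72 h at 37° in 10% CO2. Crystal violet staining after fixation; inhibiting concentration estimated qualitatively.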

[7] = system: MCF7 breast cancer cells; assay: In vitro panel of human tumour lines (TNO): MCF-7; type: cell-based; details: about 72 hours; further: key: -: no inhibition of cell growth; +: total cell-kill
How it was run: as §2

[8] = system: Colon 2 tumour line; assay: Colony inhibition in vitro, continuous drug exposure (Freiburg); type: cell-based; details: Homo sapiens, read-out: colony formation treated/control (T/C), Colon 2
Experimental: (§3) Three indoloquinones were tested at the University of Freiburg with respect to their in vitro inhibition of colony formation of the following five human tumour cell lines: lung-NSCLC, breast, renal and two colon lines.

[9] = system: Mammary (breast) tumour line; assay: as above; type: cell-based; details: Homo sapiens, read-out: colony formation treated/control (T/C), Mammary
Experimental: as §3

[10] = system: Colon 1 tumour line; assay: as above; type: cell-based; details: Homo sapiens, read-out: colony formation treated/control (T/C), Colon 1
Experimental: as §3

[11] = system: Renal tumour line; assay: as above; type: cell-based; details: Homo sapiens, read-out: colony formation treated/control (T/C), Renal
Experimental: as §3

SMILES: CC(=O)OC/C=C/c1c(COC(C)=O)c2c(n1C)C(=O)C=C(N1CC1)C2=O [E.O. 4, 3-Acetoxymethyl-5-aziridino-1-methyl-2-[1H-indole-4,7-dione]prop-β-en-α-yl acetate]
- in vitro activity score, A 204 ([1]; 0.01 μg/ml): -
- in vitro activity score, A 204 ([1]; 0.1 μg/ml): -
- in vitro activity score, A 204 ([1]; 1.0 μg/ml): +
- in vitro activity score, A 204 ([1]; 10 μg/ml): +
- in vitro activity score, T 24 ([2]; 0.01 μg/ml): -
- in vitro activity score, T 24 ([2]; 0.1 μg/ml): -
- in vitro activity score, T 24 ([2]; 1.0 μg/ml): +
- in vitro activity score, T 24 ([2]; 10 μg/ml): +
- % T/C ([3]; 15 mg/kg IP single dose): tox.
- % T/C ([3]; 25, 30 mg/kg IP single dose): tox.
- response vs control in vivo at 20 mg/kg ([3]; Mus musculus, L1210, ip, read-out: % T/C): 100%
- minimal effective concentration ([4]; L1210, read-out: LAD 1 (lowest active dose)): 0.032 to 0.064 µg/mL
- minimal effective concentration ([4]; L1210, read-out: LAD 2 (lowest active dose)): 0.064 µg/mL
- in vitro activity score, IgR-37 ([5]; 0.01 μg/ml): -
- in vitro activity score, IgR-37 ([5]; 0.1 μg/ml): -
- in vitro activity score, IgR-37 ([5]; 1.0 μg/ml): +
- in vitro activity score, IgR-37 ([5]; 10 μg/ml): +
- in vitro activity score, WiDr ([6]; 0.01 μg/ml): -
- in vitro activity score, WiDr ([6]; 0.1 μg/ml): -
- in vitro activity score, WiDr ([6]; 10 μg/ml): +
- in vitro activity score, MCF-7 ([7]; 0.01 μg/ml): -
- in vitro activity score, MCF-7 ([7]; 0.1 μg/ml): -
- in vitro activity score, MCF-7 ([7]; 10 μg/ml): +
- activity at 0.001 µg/mL [8]: 86%
- activity at 0.01 µg/mL [8]: 70%
- activity at 0.1 µg/mL [8]: 11%
- activity at 0.001 µg/mL [9]: 95%
- activity at 0.01 µg/mL [9]: 46%
- activity at 0.1 µg/mL [9]: 0%
- activity at 0.001 µg/mL [10]: 51%
- activity at 0.01 µg/mL [10]: 56%
- activity at 0.1 µg/mL [10]: 56%
- activity at 0.001 µg/mL [11]: 88%
- activity at 0.01 µg/mL [11]: 88%
- activity at 0.1 µg/mL [11]: 41%
